# Laboratory results taken from patent EP2233566A1, “Generation of pancreatic progenitor cells” (Vrije Universiteit Brussel, priority 2009, dated 2010).
# Test system: human embryonic stem cells-derived definitive endoderm
# Test: Hepatic differentiation (AFP / albumin expression) of hES cell-derived definitive endoderm
# Assay type: cell-based
# Protocol: Cells were split in 4-well plates and differentiation performed in five stages as previously published (D'Amour et al. 2006 (supra); Table 2). Briefly, for DE induction 80% confluent cultures were washed with PBS and treated with 100 ng/ml Activin-A (RnD Systems) and 25 ng/ml Wnt3a (RnD Systems) for 24h in RPMI (Invitrogen) supplemented with antibiotics and Glutamax; then they were further treated with 100 ng/ml Activin-A in RPMI containing 0.2% FBS (PAA Laboratories) for 48h. PGT stage cells were treated with 50 ng/ml FGF10 (RnD Systems), 250 nM KAAD-Cyclopamine (Calbiochem) and 2% FBS in RPMI medium for 3 or 4 days. In the PFG stage (3-4 days), the medium was changed to DMEM supplemented with Glutamax, antibiotics, 1% B27 (Invitrogen), 2 µM retinoic acid (RA, Sigma), FGF10 and KAAD-Cyclopamine. […]
# At each stage, cultures were washed with PBS, fixed for 10-15 min at room temperature in 4% formaldehyde and rinsed several times. […] Immunocytochemistry was performed for the detection of Hnf1B using a donkey horse radish peroxidase (HRP)-conjugated secondary antibody and detected by the ABC complex (Dako) as previously described in Mfopou et al. 2007 (Stem Cells 25: 1156-1165). […]
smiles,measurement,setting,value
Cc1c[nH]c(/C=C2\C(=O)Nc3ccccc32)c1CCC(=O)O [SU5402],albumin expression by the pancreas endoderm stage,SU5402 (250 nM) alone,attenuates albumin expression
same,reduced hepatic differentiation,SU5402 added in PGT and PFG stages (FGF signalling inhibition),at least 50%
